Reference: patent publication US9555038B2, “Heterocycle-substituted tetracyclic compounds and methods of use thereof for the treatment of viral diseases” (Merck Sharp & Dohme Corp., priority 2013, dated 2017)
Read-outs that look alike come from different tables or passages of the source.

Experiments:
HCV replicon 1A = test: Cell-based HCV Replicon Assay A, replicon 1A
Procedure, shortened: (§1)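 HCV replicon RNA levels are measured by multiplexed real-time RT-PCR, with cyclophilin as internal control, after 3 days of compound exposure. Compounds are tested in 10 serial dilutions starting between 333.3 nM and 1.667 nM, with 5% FBS in the medium.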

HCV replicon 2B = test: Cell-based HCV Replicon Assay A, replicon 2B
Procedure, shortened: as §1

HCV replicon 1AQ30D = test: Cell-based HCV Replicon Assay B, replicon 1AQ30D
Procedure, shortened: (§2)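 Replicon cells seeded in 5% FBS; compounds added 24 h later, then 3 days' incubation. Replicon RNA quantified by real-time RT-PCR with genotype-specific primers/probes (NS5B amplicon for 1b). EC50 = concentration raising CT by 1 over projected baseline.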

HCV replicon 1B = test: Cell-based HCV Replicon Assay B, replicon 1B
Procedure, shortened: as §2

HCV replicon 1AY93H = test: Cell-based HCV Replicon Assay A, replicon 1AY93H
Procedure, shortened: as §1

[1] = replicon 1AQ30D, read-out: 1A Q30D IC50
[2] = replicon 1AY93H, read-out: 1A Y93H IC50
[3] = read-out: 1A Q30D IC50, replicon 1AQ30D
[4] = read-out: 1A Y93H IC50, replicon 1AY93H
[5] = Hepatitis C virus, read-out: 1A Q30D IC50 (nM), replicon 1AQ30D
[6] = Hepatitis C virus, read-out: 2B IC50 (nM), replicon 2B
[7] = Hepatitis C virus, read-out: 1A Y93H IC50 (nM), replicon 1AY93H

Structure (SMILES)	IC50 (HCV replicon 1A)	IC50 (HCV replicon 2B; replicon 2B, read-out: 2B IC50)	IC50 (HCV replicon 1AQ30D; [1])	IC50 (HCV replicon 1B)	IC50 (HCV replicon 1AY93H; [2])	IC50 (HCV replicon 2B; read-out: 2B IC50, replicon 2B)	IC50 (HCV replicon 1AQ30D; [3])	IC50 (HCV replicon 1AY93H; [4])	IC50 (HCV replicon 1AQ30D; [5])	IC50 (HCV replicon 1B; Hepatitis C virus)	IC50 (HCV replicon 1A; Hepatitis C virus)	IC50 (HCV replicon 2B; [6])	IC50 (HCV replicon 1AY93H; [7])
COC(=O)NC(C(=O)N1CCCC1c1ncc(-c2cc(F)c3c(c2)OC(c2cnc(C4CCCC4)s2)n2c-3cc3cc(-c4cnc(C5CC6CC6N5C(=O)C(NC(=O)OC)C(C)C)[nH]4)ccc32)[nH]1)C(C)C (single isomer, unassigned) [Compound 319]	0.0025 nM	0.017 nM	0.051 nM	0.003 nM	0.0029 nM	–	–	–	–	–	–	–	–
COC(=O)N[C@H](C(=O)N1CCC[C@H]1c1ncc(-c2cc(F)c3c(c2)OC(c2cnc(C4CC4)s2)n2c-3cc3cc(-c4cnc([C@@H]5C[C@H]6C[C@H]6N5C(=O)[C@@H](NC(=O)OC)C(C)C)[nH]4)ccc32)[nH]1)C(C)C (single isomer, unassigned) [Compound 301]	0.0014 nM	–	–	0.004 nM	–	0.335 nM	2.12 nM	0.22 nM	–	–	–	–	–
COC(=O)N[C@H](C(=O)N1CCC[C@H]1c1ncc(-c2cc(F)c3c(c2)OC(c2cnc(OC)s2)n2c-3cc3cc(-c4cnc([C@@H]5CCCN5C(=O)[C@@H](NC(=O)OC)C(C)C)[nH]4)ccc32)[nH]1)C(C)C (single isomer, unassigned) [Compound 14]	0.0014 nM	–	–	–	–	0.015 nM	–	0.0034 nM	0.115 nM	0.002 nM	–	–	–
COC(=O)NC(C(=O)N1CCC[C@H]1c1ncc(-c2ccc3c(c2)cc2n3C(c3cnc(CC(C)C)s3)Oc3cc(-c4cnc([C@@H]5CCCN5C(=O)[C@@H](NC(=O)OC)C(C)C)[nH]4)cc(F)c3-2)[nH]1)C1CCOC(C)(C)C1 (single isomer, unassigned) [Compound 545]	0.0026 nM	–	–	0.0028 nM	–	0.006 nM	0.015 nM	0.004 nM	–	–	–	–	–
CCc1ncc(C2Oc3cc(-c4cnc([C@@H]5CCCN5C(=O)[C@@H](NC(=O)OC)C(C)C)[nH]4)cc(F)c3-c3cc4cc(-c5cnc([C@@H]6CCCN6C(=O)C(NC(=O)OC)C6C[C@@H](C)O[C@@H](C)C6)[nH]5)ccc4n32)s1 (single isomer, unassigned) [Compound 36]	0.0025 nM	–	–	–	–	0.005 nM	–	0.004 nM	0.038 nM	0.003 nM	–	–	–
COC(=O)N[C@H](C(=O)N1CCC[C@H]1c1ncc(-c2cc(F)c3c(c2)OC(c2cnc(C4CCCC4)s2)n2c-3cc3cc(-c4cnc([C@@H]5CCCN5C(=O)[C@@H](NC(=O)OC)C(C)C)[nH]4)ccc32)[nH]1)C(C)C (single isomer, unassigned) [Compound 25]	–	–	–	–	–	0.014 nM	–	0.0025 nM	0.07 nM	0.001 nM	0.0025 nM	–	–
COC(=O)NC(C(=O)N1CCC[C@H]1c1ncc(-c2ccc3c(c2)cc2n3C(c3cnc(C4(C)CC4)s3)Oc3cc(-c4cnc([C@@H]5CCCN5C(=O)[C@@H](NC(=O)OC)C(C)C)[nH]4)cc(F)c3-2)[nH]1)C1C[C@@H](C)O[C@@H](C)C1 (single isomer, unassigned) [Compound 462]	0.0035 nM	–	–	0.0031 nM	–	0.007 nM	–	0.007 nM	0.038 nM	–	–	–	–
COC(=O)NC(C(=O)N1[C@@H]2C[C@@H]2C[C@H]1c1ncc(-c2ccc3c(c2)cc2n3C(c3cnc(C4(C)CC4)s3)Oc3cc(-c4cnc([C@@H]5CCCN5C(=O)[C@@H](NC(=O)OC)C(C)C)[nH]4)cc(F)c3-2)[nH]1)C1CCOC(C)(C)C1 (single isomer, unassigned) [Compound 468]	0.0033 nM	–	–	0.0029 nM	–	0.234 nM	1.23 nM	0.155 nM	–	–	–	–	–
COC(=O)N[C@H](C(=O)N1CCC[C@H]1c1ncc(-c2cc(F)c3c(c2)OC(c2cnc(-c4cnccn4)s2)n2c-3cc3cc(-c4cnc([C@@H]5CCCN5C(=O)[C@@H](NC(=O)OC)C(C)C)[nH]4)ccc32)[nH]1)C(C)C (mixture of isomers) [Compound 423]	–	–	–	–	–	–	–	–	0.444 nM	0.007 nM	0.0053 nM	0.041 nM	0.0526 nM
COC(=O)NC(C(=O)N1[C@@H]2C[C@@H]2C[C@H]1c1ncc(-c2ccc3c(c2)cc2n3C(c3cnc(C4(C)CC4)s3)Oc3cc(-c4cnc([C@@H]5CCCN5C(=O)[C@@H](NC(=O)OC)C(C)C)[nH]4)cc(F)c3-2)[nH]1)C1C[C@@H](C)O[C@@H](C)C1 (single isomer, unassigned) [Compound 464]	0.0028 nM	–	–	0.0034 nM	–	0.282 nM	1.23 nM	0.197 nM	–	–	–	–	–
CCCc1ncc(C2Oc3cc(-c4cnc([C@@H]5CCCN5C(=O)[C@@H](NC(=O)OC)C(C)C)[nH]4)cc(F)c3-c3cc4cc(-c5cnc([C@@H]6C[C@H]7C[C@H]7N6C(=O)[C@@H](NC(=O)OC)C(C)C)[nH]5)ccc4n32)s1 (single isomer, unassigned) [Compound 90]	–	–	–	–	–	0.018 nM	–	0.0038 nM	0.09 nM	0.003 nM	0.0025 nM	–	–
COC(=O)NC(C(=O)N1CCC[C@H]1c1ncc(-c2ccc3c(c2)cc2n3C(c3cnc(C)s3)Oc3cc(-c4cnc([C@@H]5CCCN5C(=O)[C@@H](NC(=O)OC)C(C)C)[nH]4)cc(F)c3-2)[nH]1)C1C[C@@H](C)O[C@@H](C)C1 (single isomer, unassigned) [Compound 30]	0.0028 nM	–	–	–	–	0.014 nM	–	0.0118 nM	0.112 nM	0.003 nM	–	–	–
COC(=O)NC(C(=O)N1CCC[C@H]1c1ncc(-c2ccc3c(c2)cc2n3C(c3cnc(C4CCOCC4)s3)Oc3cc(-c4cnc([C@@H]5CCCN5C(=O)[C@@H](NC(=O)OC)C(C)C)[nH]4)cc(F)c3-2)[nH]1)C1CCOC(C)(C)C1 (single isomer, unassigned) [Compound 448]	–	–	–	–	–	0.011 nM	0.113 nM	0.013 nM	–	0.006 nM	0.0047 nM	–	–
COC(=O)NC(C(=O)N1[C@@H]2C[C@@H]2C[C@H]1c1ncc(-c2ccc3c(c2)cc2n3C(c3cnc(C4CCCC4)s3)Oc3cc(-c4cnc([C@@H]5CCCN5C(=O)[C@@H](NC(=O)OC)C(C)C)[nH]4)cc(F)c3-2)[nH]1)C1CCOC(C)(C)C1 (single isomer, unassigned) [Compound 322]	0.0027 nM	–	–	0.004 nM	–	0.058 nM	0.324 nM	0.0512 nM	–	–	–	–	–
COC(=O)NC(C(=O)N1[C@@H]2C[C@@H]2C[C@H]1c1ncc(-c2ccc3c(c2)cc2n3C(c3cnc(CC(C)C)s3)Oc3cc(-c4cnc([C@@H]5CCCN5C(=O)[C@@H](NC(=O)OC)C(C)C)[nH]4)cc(F)c3-2)[nH]1)C1CCOC(C)(C)C1 (single isomer, unassigned) [Compound 437]	0.0022 nM	0.21 nM	0.283 nM	0.0031 nM	0.176 nM	–	–	–	–	–	–	–	–
COC(=O)NC(C(=O)N1CCC[C@H]1c1ncc(-c2ccc3c(c2)cc2n3C(c3cnc(C4(C)CCCC4)s3)Oc3cc(-c4cnc([C@@H]5CCCN5C(=O)[C@@H](NC(=O)OC)C(C)C)[nH]4)cc(F)c3-2)[nH]1)C1CCOC(C)(C)C1 (single isomer, unassigned) [Compound 447]	0.0028 nM	–	–	0.0033 nM	–	0.059 nM	0.607 nM	0.259 nM	–	–	–	–	–
COC(=O)N[C@H](C(=O)N1CCC[C@H]1c1ncc(-c2cc(F)c3c(c2)OC(c2cnc(-c4ccncc4)s2)n2c-3cc3cc(-c4cnc([C@@H]5CCCN5C(=O)[C@@H](NC(=O)OC)C(C)C)[nH]4)ccc32)[nH]1)C(C)C (single isomer, unassigned) [Compound 409]	–	–	–	–	–	–	–	–	5.1 nM	0.007 nM	0.0108 nM	1.28 nM	0.577 nM
COC(=O)N[C@H](C(=O)N1CCC[C@H]1c1ncc(-c2cc(C)c3c(c2)OC(c2cnc(C4CC4)s2)n2c-3cc3cc(-c4cnc([C@@H]5C[C@H]6C[C@H]6N5C(=O)[C@@H](NC(=O)OC)C(C)(C)F)[nH]4)ccc32)[nH]1)C(C)C (single isomer, unassigned) [Compound 208]	–	–	–	–	–	0.011 nM	–	0.0243 nM	0.268 nM	0.003 nM	0.0028 nM	–	–
COC(=O)NC(C(=O)N1[C@@H]2C[C@@H]2C[C@H]1c1ncc(-c2ccc3c(c2)cc2n3C(c3cnc(C4CCC4)s3)Oc3cc(-c4cnc([C@@H]5CCCN5C(=O)[C@@H](NC(=O)OC)C(C)C)[nH]4)cc(C)c3-2)[nH]1)C1CCOC(C)(C)C1 (single isomer, unassigned) [Compound 223]	–	–	–	–	–	–	–	–	2.98 nM	0.008 nM	0.006 nM	0.115 nM	0.3 nM
COC(=O)N[C@H](C(=O)N1CCC[C@H]1c1ncc(-c2cc(F)c3c(c2)OC(c2cnc(C(C)(C)C)s2)n2c-3cc3cc(-c4cnc([C@@H]5CCCN5C(=O)[C@@H](NC(=O)OC)C(C)C)[nH]4)ccc32)[nH]1)C(C)C (mixture of isomers) [Compound 418]	–	–	–	–	–	–	–	–	0.255 nM	0.003 nM	0.0023 nM	0.095 nM	0.0083 nM
COC(=O)N[C@H](C(=O)N1CCC[C@H]1c1ncc(-c2cc(F)c3c(c2)OC(c2cnc(-c4ccccn4)s2)n2c-3cc3cc(-c4cnc([C@@H]5CCCN5C(=O)[C@@H](NC(=O)OC)C(C)C)[nH]4)ccc32)[nH]1)C(C)C (mixture of isomers) [Compound 407]	–	–	–	–	–	–	–	–	0.482 nM	0.004 nM	0.0027 nM	0.192 nM	0.143 nM
